Measured values reported in the NIST ThermoML archive (doi:10.1021/je050376y).

Test: xn = mol fraction of the nth substance listed
Conditions: 101 kPa, Liquid

Cc1ccc(O)cc1 [4-methylphenol] + OCCO
Conditions | mass density [kg/m3] | viscosity [mPa·s]
308.15 K, x1 = 0.1001 | 1088.89 | 12.15
308.15 K, x1 = 0.1999 | 1077.45 | 12.43
308.15 K, x1 = 0.2997 | 1067.32 | 12.43
308.15 K, x1 = 0.4001 | 1058.44 | 12.09
308.15 K, x1 = 0.4998 | 1050.66 | 11.54
308.15 K, x1 = 0.6002 | 1043.69 | 10.83
308.15 K, x1 = 0.7 | 1037.34 | 10.01
308.15 K, x1 = 0.8 | 1031.62 | 9.31
308.15 K, x1 = 0.8994 | 1026.55 | 8.726
308.15 K, x1 = 1 | 1021.98 | 8.444
313.15 K, x1 = 0.1001 | 1085.2 | 9.956
313.15 K, x1 = 0.1999 | 1073.68 | 10.18
313.15 K, x1 = 0.2997 | 1063.52 | 10.13
313.15 K, x1 = 0.4001 | 1054.58 | 9.821
313.15 K, x1 = 0.4998 | 1046.78 | 9.353
313.15 K, x1 = 0.6002 | 1039.82 | 8.735
313.15 K, x1 = 0.7 | 1033.45 | 8.103
313.15 K, x1 = 0.8 | 1027.72 | 7.526
313.15 K, x1 = 0.8994 | 1022.63 | 7.022
313.15 K, x1 = 1 | 1018.05 | 6.745
318.15 K, x1 = 0.1001 | 1081.49 | 8.319
318.15 K, x1 = 0.1999 | 1069.89 | 8.436
318.15 K, x1 = 0.2997 | 1059.67 | 8.358
318.15 K, x1 = 0.4001 | 1050.7 | 8.059
318.15 K, x1 = 0.4998 | 1042.88 | 7.662
318.15 K, x1 = 0.6002 | 1035.9 | 7.175
318.15 K, x1 = 0.7 | 1029.55 | 6.646
318.15 K, x1 = 0.8 | 1023.79 | 6.177
318.15 K, x1 = 0.8994 | 1018.7 | 5.739
318.15 K, x1 = 1 | 1014.09 | 5.471
323.15 K, x1 = 0.1001 | 1077.77 | 7.031
323.15 K, x1 = 0.1999 | 1066.09 | 7.069
323.15 K, x1 = 0.2997 | 1055.81 | 6.976
323.15 K, x1 = 0.4001 | 1046.81 | 6.721
323.15 K, x1 = 0.4998 | 1038.98 | 6.378
323.15 K, x1 = 0.6002 | 1031.99 | 5.971
323.15 K, x1 = 0.7 | 1025.61 | 5.523
323.15 K, x1 = 0.8 | 1019.85 | 5.136
323.15 K, x1 = 0.8994 | 1014.75 | 4.788
323.15 K, x1 = 1 | 1010.12 | 4.532
333.15 K, x1 = 0.1001 | 1070.28 | 5.121
333.15 K, x1 = 0.1999 | 1058.44 | 5.137
333.15 K, x1 = 0.2997 | 1048.06 | 5.029
333.15 K, x1 = 0.4001 | 1038.98 | 4.824
333.15 K, x1 = 0.4998 | 1031.11 | 4.607
333.15 K, x1 = 0.6002 | 1024.09 | 4.298
333.15 K, x1 = 0.7 | 1017.71 | 3.988
333.15 K, x1 = 0.8 | 1011.92 | 3.711
333.15 K, x1 = 0.8994 | 1006.8 | 3.461
333.15 K, x1 = 1 | 1002.09 | 3.245
343.15 K, x1 = 0.1001 | 1060.64 | 3.886
343.15 K, x1 = 0.1999 | 1048.68 | 3.849
343.15 K, x1 = 0.2997 | 1038.24 | 3.752
343.15 K, x1 = 0.4001 | 1029.09 | 3.602
343.15 K, x1 = 0.4998 | 1021.2 | 3.424
343.15 K, x1 = 0.6002 | 1014.17 | 3.201
343.15 K, x1 = 0.7 | 1007.79 | 2.995
343.15 K, x1 = 0.8 | 1001.99 | 2.786
343.15 K, x1 = 0.8994 | 996.84 | 2.588
343.15 K, x1 = 1 | 992.07 | 2.431
353.15 K, x1 = 0.1001 | 1055.58 | 2.934
353.15 K, x1 = 0.1999 | 1043.36 | 2.99
353.15 K, x1 = 0.2997 | 1032.81 | 2.915
353.15 K, x1 = 0.4001 | 1023.59 | 2.776
353.15 K, x1 = 0.4998 | 1015.62 | 2.648
353.15 K, x1 = 0.6002 | 1008.55 | 2.488
353.15 K, x1 = 0.7 | 1002.15 | 2.326
353.15 K, x1 = 0.8 | 996.33 | 2.173
353.15 K, x1 = 0.8994 | 991.1 | 2.022
353.15 K, x1 = 1 | 986.24 | 1.891
